In ChEMBL document CHEMBL1201862, “PubChem BioAssay data set” (2004):
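Test compounds were applied to cells in 96-well plates for 48 hours at 5 doses. GI50 is the concentration that inhibits growth by half.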 The source made the active and inactive calls. No stated cut-off is given here; in the data, active = GI50 up to about 1.1 µM and inactive = higher.

What was measured:
Assay in all cases: NCI-60 cell line screen, 48 h
CCRF-CEM = system: CCRF-CEM
LOX IMVI = system: LOX IMVI
SF-539 = system: SF-539
RXF 393 = system: RXF 393
SNB-75 = system: SNB-75
SK-MEL-2 = system: SK-MEL-2
HOP-92 = system: HOP-92
786-0 = system: 786-0
U-251 = system: U-251
A549 = system: A549
SN12C = system: SN12C
HL-60 = system: HL-60
OVCAR-4 = system: OVCAR-4
T47D = system: T47D
SF-268 = system: SF-268
Malme-3M = system: Malme-3M
MDA-MB-435 = system: MDA-MB-435
KM12 = system: KM12
DU-145 = system: DU-145
OVCAR-8 = system: OVCAR-8
HOP-62 = system: HOP-62
UACC-62 = system: UACC-62
SK-MEL-5 = system: SK-MEL-5
MDA-N = system: MDA-N
RPMI-8226 = system: RPMI-8226
MDA-MB-231 = system: MDA-MB-231
SK-MEL-28 = system: SK-MEL-28
Hs-578T = system: Hs-578T
K562 = system: K562
HCC 2998 = system: HCC 2998
A498 = system: A498
MOLT-4 = system: MOLT-4
MCF7 = system: MCF7
EKVX = system: EKVX
NCI/ADR-RES = system: NCI/ADR-RES
HT-29 = system: HT-29
NCI-H522 = system: NCI-H522
NCI-H226 = system: NCI-H226
SR = system: SR
CAKI-1 = system: CAKI-1
UO-31 = system: UO-31
COLO 205 = system: COLO 205
OVCAR-5 = system: OVCAR-5
SK-OV-3 = system: SK-OV-3
M14 = system: M14
IGROV-1 = system: IGROV-1
HCT-15 = system: HCT-15
SF-295 = system: SF-295
NCI-H23 = system: NCI-H23
OVCAR-3 = system: OVCAR-3
ACHN = system: ACHN
SW-620 = system: SW-620
BT-549 = system: BT-549
HCT-116 = system: HCT-116
NCI-H460 = system: NCI-H460

## O=C(Nc1ccccc1)N1CCNC1=S
CCRF-CEM
  GI50: > 100 µM (inactive)
LOX IMVI
  GI50: > 100 µM (inactive)
SF-539
  GI50: > 100 µM (inactive)
RXF 393
  GI50: 26.5 µM (inactive)
SNB-75
  GI50: 28.4 µM (inactive)
SK-MEL-2
  GI50: > 100 µM (inactive)
HOP-92
  GI50: > 100 µM (inactive)
786-0
  GI50: > 100 µM (inactive)
U-251
  GI50: > 100 µM (inactive)
A549
  GI50: > 100 µM (inactive)
SN12C
  GI50: > 100 µM (inactive)
HL-60
  GI50: > 100 µM (inactive)
OVCAR-4
  GI50: 71.6 µM (inactive)
T47D
  GI50: 60.1 µM (inactive)
SF-268
  GI50: > 100 µM (inactive)
Malme-3M
  GI50: > 100 µM (inactive)
MDA-MB-435
  GI50: > 100 µM (inactive)
KM12
  GI50: > 100 µM (inactive)
DU-145
  GI50: > 100 µM (inactive)
OVCAR-8
  GI50: > 100 µM (inactive)
HOP-62
  GI50: > 100 µM (inactive)
UACC-62
  GI50: > 100 µM (inactive)
SK-MEL-5
  GI50: > 100 µM (inactive)
MDA-N
  GI50: > 100 µM (inactive)
RPMI-8226
  GI50: > 100 µM (inactive)
MDA-MB-231
  GI50: > 100 µM (inactive)
SK-MEL-28
  GI50: > 100 µM (inactive)
Hs-578T
  GI50: 48 µM (inactive)
K562
  GI50: > 100 µM (inactive)
HCC 2998
  GI50: 15.5 µM (inactive)
A498
  GI50: > 100 µM (inactive)
MOLT-4
  GI50: > 100 µM (inactive)
MCF7
  GI50: > 100 µM (inactive)
EKVX
  GI50: 53 µM (inactive)
NCI/ADR-RES
  GI50: > 100 µM (inactive)
HT-29
  GI50: > 100 µM (inactive)
NCI-H522
  GI50: > 100 µM (inactive)
NCI-H226
  GI50: 87.5 µM (inactive)
SR
  GI50: 69.2 µM (inactive)
CAKI-1
  GI50: > 100 µM (inactive)
UO-31
  GI50: 57.3 µM (inactive)
COLO 205
  GI50: > 100 µM (inactive)
OVCAR-5
  GI50: > 100 µM (inactive)
SK-OV-3
  GI50: > 100 µM (inactive)
M14
  GI50: > 100 µM (inactive)
IGROV-1
  GI50: > 100 µM (inactive)
HCT-15
  GI50: > 100 µM
SF-295
  GI50: > 100 µM (inactive)
NCI-H23
  GI50: > 100 µM (inactive)
OVCAR-3
  GI50: > 100 µM (inactive)
ACHN
  GI50: > 100 µM (inactive)
SW-620
  GI50: > 100 µM (inactive)
BT-549
  GI50: 65.5 µM (inactive)
HCT-116
  GI50: > 100 µM (inactive)
NCI-H460
  GI50: 57.9 µM (inactive)
